# ChEMBL document CHEMBL1147990 (Bioorg Med Chem, 2007)
# Target: Carbonic anhydrase 5A, mitochondrial (Homo sapiens, UniProt P35218)
# Assay: Inhibition of human carbonic anhydrase 5A
# Carbonic anhydrase 5A, mitochondrial, sequence (P35218 whole entry): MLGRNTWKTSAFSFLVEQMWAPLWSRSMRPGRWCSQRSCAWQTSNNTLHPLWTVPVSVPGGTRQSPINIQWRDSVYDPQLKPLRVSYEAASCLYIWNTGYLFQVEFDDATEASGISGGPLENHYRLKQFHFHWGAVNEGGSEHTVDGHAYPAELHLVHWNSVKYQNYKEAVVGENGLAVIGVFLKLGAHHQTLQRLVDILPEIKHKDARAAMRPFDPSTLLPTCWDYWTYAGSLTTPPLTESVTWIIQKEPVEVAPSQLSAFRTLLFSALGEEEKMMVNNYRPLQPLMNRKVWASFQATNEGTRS
compound,measurement,value
CC1(C)O[C@@H]2[C@@H](CO[C@@]3(COS(N)(=O)=O)OC(C)(C)O[C@@H]23)O1 [TOPIRAMATE],Kd,25.4 nM
